In US20260115202A1, “TOPICAL COMPOSITIONS COMPRISING AN ESTETROL COMPONENT AND USE OF SAID COMPOSITIONS FOR WOUND HEALING” (NEURALIS SA, priority 2022, published 2026):

Tests used:
[1] = test system: murine dermal fibroblasts (MDF); experiment: qPCR gene expression in murine dermal fibroblasts; assay type: cell-based, mouse; conditions: MDF, 10^−7M, qPCR
From the text: Primary human dermal fibroblasts (HDF) were isolated from abdominal skin or leg skin. Primary neonatal normal human epidermal keratinocytes (NHEK) were purchased (Lonza). Murine dermal fibroblasts (MDF), murine epidermal keratinocytes (MEK), murine peritoneal macrophages and murine bone marrow were isolated from C57/B16 (wt). NDb (Lepr+/−) or Db (Lepr−/−) mice. Fibroblasts were isolated and cultured in DMEM supplemented with 10% heat inactivated FBS. 1% penicillin/streptomycin and 1% amphotericin B. At least 4 days prior to performing assays cells were switched to DMEM supplemented with 5% charcoal-stripped FBS. Following treatments, human and murine macrophages were collected in Trizol and RNA isolated using the Trizol plus RNA isolation kit (Invitrogen. Thermo Fisher) according to the manufacturer's instructions. RNA was reverse transcribed to cDNA using GoScript reverse transcriptase (Promega). Quantitative real-time PCR was carried out using 2×Takyon SYBR Green mastermix and a CFX Connect thermocycler. Primers for ERα and ERβ were used to explore changes in ER expression after treatment of MEK and MDF with E2 and E4. To investigate the effect of E2 and E4 on MEK differentiation and the expression of ECM proteins by MDF, primers for. Snail, keratin-1 and fibronectin, collagen I. MMP-2 and MMP-9 were used. Primers for INOS. IL-1B and Tnf-α or Ccl17 were used to assess M1/M2 polarisation status. Primers for GAPDH were used to normalise data. Relative gene expression was set to vehicle controls or M0 expression unless otherwise stated. In vitro cultured murine fibroblasts were treated with either E2, E4, DPN or PPT at 10^−7M. As previously reported. […] Next, zymography was performed on cell supernatants from HDFs treated with either E2 or E4, to evaluate the effect of E2 and E4 on cell-derived MMP activity. […] The magnitude of the effect (and statistical significance) was greater in cells treated with E4. No MMP9 activity was detected in any treatment group. Finally, we explored the effect of E2 and E4 on murine fibroblast expression of extracellular matrix genes, specifically collagen 1 (Colal) and fibronectin (Fn1) (FIG. 20).

[2] = test system: human dermal fibroblasts (HDF); experiment: Scratch wound assay, human dermal fibroblasts; assay type: cell-based; conditions: HDF, 24 hours, preliminary
From the text: Primary human dermal fibroblasts (HDF) were isolated from abdominal skin or leg skin. Primary neonatal normal human epidermal keratinocytes (NHEK) were purchased (Lonza). Murine dermal fibroblasts (MDF), murine epidermal keratinocytes (MEK), murine peritoneal macrophages and murine bone marrow were isolated from C57/B16 (wt). NDb (Lepr+/-) or Db (Lepr-/-) mice. Fibroblasts were isolated and cultured in DMEM supplemented with 10% heat inactivated FBS. 1% penicillin/streptomycin and 1% amphotericin B. At least 4 days prior to performing assays cells were switched to DMEM supplemented with 5% charcoal-stripped FBS. Cells were seeded into 24 well plates and cultured to form a confluent monolayer, and then scratched with a 1 ml pipette tip. Wells were treated with E2, E4 and/or various estrogen receptor agonists and antagonists. […] A vehicle control containing the equivalent concentration of EtOH and/or DMSO was included, in addition to an untreated negative control. All treatments were diluted to working concentrations in media supplemented with 2% charcoal-stripped FBS. To visualise scratches at the defined endpoint, cells were stained with crystal violet and imaged on a Nikon E400 brightfield microscope. Scratch closure was determined from multiple independent measurements per well. Scratch assays were performed to quantify the effect of E2 and E4 at varying concentrations on HDF migration (FIG. 14). […] 10^-7M and 10^-6M (152%. 147% and 142% respectively). Thus, both E2 and E4 optimally stimulated fibroblast scratch wound closure at 10^-8M, with the higher magnitude of stimulation observed following E2 treatment. Next, an additional experiment was performed using HDF to a) further confirm the effects of E2 and E4 in fibroblasts from a fifth donor and b) explore the relative effect of including CS-FBS in the cell culture media. Three identical sets of scratch assays were performed (comparing vehicle to E2 or E4 treatment at 10^-7M) in DMEM containing either 2% CS-FBS. 0% FBS or 2% FBS (not CS).

[3] = test system: mouse bone marrow derived macrophages (BMDM); experiment: M1-polarised murine bone marrow derived macrophages, qPCR of M1 markers; assay type: cell-based; conditions: M1 polarised BMDM, E4 10^−7M, preliminary
Procedure: Bones were flushed with DMEM supplemented with 1% penicillin/streptomycin and 1% amphotericin B. Bone marrow cells were seeded into 12- or 6-well plates at 1×10^6 cells/ml in DMEM supplemented with 10% FBS and 10% L929-conditioned medium to induce differentiation. After 7-10 days, differentiated macrophages were treated with 10^−7M E2 or E4 in serum free growth medium for 16 hours and polarised to M1-type cells using 100 ng/ml IFN-γ and 1 μg/ml LPS. Following 6- or 24-hours polarisation cells were collected for RNA isolation or flow cytometry.
Following treatments, human and murine macrophages were collected in Trizol and RNA isolated using the Trizol plus RNA isolation kit (Invitrogen. Thermo Fisher) according to the manufacturer's instructions. RNA was reverse transcribed to cDNA using GoScript reverse transcriptase (Promega). Quantitative real-time PCR was carried out using 2×Takyon SYBR Green mastermix and a CFX Connect thermocycler. Primers for ERα and ERβ were used to explore changes in ER expression after treatment of MEK and MDF with E2 and E4. To investigate the effect of E2 and E4 on MEK differentiation and the expression of ECM proteins by MDF, primers for. Snail, keratin-1 and fibronectin, collagen I. MMP-2 and MMP-9 were used. Primers for INOS. IL-1B and Tnf-α or Ccl17 were used to assess M1/M2 polarisation status. Primers for GAPDH were used to normalise data. Relative gene expression was set to vehicle controls or M0 expression unless otherwise stated.
For follow up experiments murine bone marrow derived monocytes were isolated, differentiated (L929 media) and polarised to a pro-inflammatory M1 phenotype (IFN-γ and LPS: for 6 or 24 hours), and co-treated with either E2 or E4 at the optimal concentration identified in THP1 cells (10^−7: FIG. 24). […] Experiments were then undertaken with murine bone marrow derived monocytes differentiated to macrophages with 30 ng/ml MCSF, as opposed to L929 conditioned media.

Row | SMILES | expression of ERα and ERβ [1] | effect of ER antagonist co-treatment on E4-induced scratch closure [2] | effect of ER antagonist co-treatment on E4-mediated reduction in IL1-β [3]
1 | N#CC(Cc1ccc(O)cc1)c1ccc(O)cc1 (stereo not shown) [DPN] | increased ERβ expression | – | –
2 | Cc1c(-c2ccc(O)cc2)nn(-c2ccc(O)cc2)c1-c1ccc(OCCN2CCCCC2)cc1 [MPP, reference compound] | – | appears to block E4-induced scratch closure | appears to block E4-induced scratch closure and E4-mediated reduction in IL1-β
3 | CCCc1c(-c2ccc(O)cc2)nn(-c2ccc(O)cc2)c1-c1ccc(O)cc1 [PPT] | increased ERα | – | –
